Results taken from patent US20240180872A1, “METHODS AND COMPOUNDS OF CANNABIDIOL, MELATONIN AND AKBA FOR TREATING PANCREATIC CANCER” (priority 2021, published 2024).

Test system: pancreatic adenocarcinoma associated genes
Test: TaqMan Array gene expression in MIAPaCa-2, normalized for GAPDH
Assay type: cell-based, Human
Conditions: Mia-PACA-2, 24 hs, CBD 3.8, MLT 200, AKBA 7.5 micrograms/ml
Method: Total RNA from untreated or CBD, MLT, AKBA alone and in combination treated cell lines was extracted using Rneasy Mini kit (Qiagen, Milan, Italy). One microgram of total RNA from each sample was subjected to reverse transcription in a total volume of 20 μL using the High-Capacity cDNA Archive Kit (Applied Biosystem, Foster City, […], USA) according to the instructions. cDNAs were analyzed by qRT-PCR performed using an IQ5 Multicolor Real time PCR Detection system. Quantitative real-time gene expression was performed with the TaqMan® Array Human Pancreatic Adenocarcinoma 96-well Plate, containing 92 assays to pancreatic adenocarcinoma associated genes and 4 assays to candidate endogenous control genes, was purchased (Thermo Fisher, Grand Island, NY, USA) and used to evaluate the treatments in modulating PDAC-related genes (Table 1). Measurement of different housekeeping genes (GAPDH; HPRT1; GUSB) on the samples was used to normalize mRNA content. The gene expression levels of treated cell lines were expressed as relative fold compared with untreated or vehicle-treated cells.
To elucidate the molecular events induced by CBD, MLT and AKBA alone and in combination, 92 genes involved in PDAC progression and aggressiveness were evaluated by Taqman Array. Both cell lines were treated with CBD, MLT and AKBA alone and in combination, and the molecular pathways of PDAC associated gene were evaluated.
Target mRNA levels were normalized for GAPDH expression.

[1] = normalized for GAPDH, Akt pathways
[2] = normalized for GAPDH, Akt-pathways
[3] = normalized for GAPDH, DNA repair
[4] = normalized for GAPDH, NfkB pathways
[5] = normalized for GAPDH, Ras pathways
[6] = normalized for GAPDH, TGF patways
[7] = normalized for GAPDH, TGF-patways
[8] = normalized for GAPDH, angiogenesis
[9] = normalized for GAPDH, apoptosis
[10] = normalized for GAPDH, cell cycle
[11] = normalized for GAPDH, inflammation
[12] = normalized for GAPDH, proliferation

For `COc1ccc2[nH]cc(CCNC(C)=O)c2c1` [MLT, N-[2-(5-methoxy-1H-indol-3-yl)ethyl]acetamide], the GAPDH relative expression (GAPDH is the normalizer) was 1.00, the PK3CB relative expression [1] was 0.15 and the PK3CD relative expression [1] was 0.07. The AKT1 relative expression [2] was 0.09, the AKT2 relative expression [2] was 0.55 and the AKT3 relative expression [2] was 0.00. For the same molecule, the IGF1 relative expression [2] was 0.00, the PK3CA relative expression [2] was 0.00 and the PK3R1 relative expression [2] was 0.03. For the same molecule, the BRCA2 relative expression [3] was 0.40, the MDM2 relative expression [3] was 0.00 and the TP53 relative expression [3] was 0.26. For the same molecule, the HSP90AA1 relative expression (normalized for GAPDH, Heat sock protein) was 0.00, the NFKB1 relative expression [4] was 0.11 and the NFKB2 relative expression [4] was 0.02. For the same molecule, the REL relative expression [4] was 0.09, the RELA relative expression [4] was 0.00 and the RELB relative expression [4] was 0.06. The RHOA relative expression [4] was 0.07, the RHOB relative expression [4] was 0.03 and the BRAF relative expression [5] was 0.16. The E2F1 relative expression [5] was 0.16, the E2F3 relative expression [5] was 0.09 and the E2F4 relative expression [5] was 0.19. The EGF relative expression [5] was 0.00, the EGFR relative expression [5] was 0.19 and the ELK1 relative expression [5] was 0.11. The ERBB2 relative expression [5] was 0.05, the GRB2 relative expression [5] was 0.28 and the HBEGF relative expression [5] was 0.46. It also gave a KRAS relative expression [5] of 0.01, an MAP2K1 relative expression [5] of 0.04 and an MAP2K2 relative expression [5] of 0.09. The MAPK1 relative expression [5] was 0.03, the MAPK3 relative expression [5] was 0.01 and the RAF1 relative expression [5] was 0.07. It also gave an RB1 relative expression [5] of 0.03, an SOS1 relative expression [5] of 0.07 and a TGFB2 relative expression [6] of 0.00. For the same molecule, the TGFB3 relative expression [6] was 0.00, the TGFBR1 relative expression [6] was 0.00 and the SMAD2 relative expression [7] was 0.21. It also gave an SMAD3 relative expression [7] of 0.24, an SMAD4 relative expression [7] of 0.09 and a TGFA relative expression [7] of 0.20. For the same molecule, the TGFB1 relative expression [7] was 0.04, the TGFBR2 relative expression [7] was 0.00 and the FIGF relative expression [8] was 0.14. It also gave a VEGFA relative expression [8] of 0.02, a VEGFB relative expression [8] of 0.04 and a VEGFC relative expression [8] of 0.00. For the same molecule, the BCL2L1 relative expression [9] was 0.26, the BCL2 relative expression [9] was 0.00 and the BIRC5 relative expression [9] was 0.16. The CCNA2 relative expression [10] was 0.09, the CCNB1 relative expression [10] was 0.40 and the CCND1 relative expression [10] was 0.12. The CCND2 relative expression [10] was 0.00, the CCNE1 relative expression [10] was 0.13 and the CCNE2 relative expression [10] was 0.09. The CDC42 relative expression [10] was 0.00, the CDK2 relative expression [10] was 0.09 and the CDK4 relative expression [10] was 0.20. It also gave a CDKN1A relative expression [10] of 0.08, a CDKN1B relative expression [10] of 0.11 and a CDKN2A relative expression [10] of 0.20. For the same molecule, the CDKN2B relative expression [10] was 1.98, the CDKN2C relative expression [10] was 0.17 and the CDKN2D relative expression [10] was 0.05. The IL6 relative expression [11] was 0.00, the JAK1 relative expression [11] was 0.02 and the JAK2 relative expression [11] was 0.02. The JAK3 relative expression [11] was 0.00, the STAT1 relative expression [11] was 0.13 and the STAT2 relative expression [11] was 0.00. For the same molecule, the STAT3 relative expression [11] was 0.08, the STAT6 relative expression [11] was 0.01 and the STATSB relative expression [11] was 0.49. For the same molecule, the MMP1 relative expression (normalized for GAPDH, invasion) was 0.08, the MMP2 relative expression (normalized for GAPDH, invasion) was 0.00 and the MMP3 relative expression (normalized for GAPDH, invasion) was 0.01. For the same molecule, the MMP7 relative expression (normalized for GAPDH, invasion) was 0.01, the MMP9 relative expression (normalized for GAPDH, invasion) was 0.04 and the PTGS2 relative expression (normalized for GAPDH, invasion) was 0.03. The RAC1 relative expression (normalized for GAPDH, invasion) was 0.00, the RAC2 relative expression (normalized for GAPDH, invasion) was 0.01 and the KIT relative expression [12] was 0.01. It also gave an NOTCH1 relative expression [12] of 0.38 and an SRC relative expression [12] of 0.07.
